For one assay, the system named is codling moth. The assay can be described thus: Trap capture with proportional mixes of ethyl 2,4-decadienoate isomers. The class given is in vivo, Cydia pomonella. The settings on record: 1 mg dose/gray septum. As to the method:
Additionally, studies were performed to determine the attraction of codling moth to proportional mixes of (2E,4Z) and (2E,4E) isomers of ethyl 2,4-decadienoate and highly purified samples of each. Traps were baited with 1 mg dose/gray septum.
Regarding `CCCCC/C=C/C=C/C(=O)OCC` [Ethyl (2E,4E)-2,4-Decadienoate], the “Female CM Captured ♀♀/trap/night ± SEM” value is 0.05 ± 0.05 ♀♀/trap/night, the “MALE CM Captured: ♂♂/trap/night ± SEM” value is reported as 0.19 ± 0.05 ♂♂/trap/night and the “Total CM Captured: CM/trap ± SEM” value worked out at 0.24 ± 0.10 CM/trap.

In another assay the test system is codling moth. Description: Field study of individual alcohols, aldehydes and esters. The class given is in vivo, Cydia pomonella. The settings on record: individual compounds typically of purity 90-98%. An excerpt: Attractive activity of these compounds for male and female codling moth was compared to purified ethyl (2E,4Z)-2,4-decadienoate.
When the cumulative evaluation of all studied compounds and/or blends containing aldehyde, alcohol, ester and terpene compounds was made, the following results clearly confirmed the findings seen in Table 3.
With `CCCCCC=CC=CCO` [(2,4)-2,4-decadien-1-ol], the “attractancy to male and female codling moth (in words)” value (“attractancy” below) is listed as “very low male attractancy”.

Take `CCCCCCC/C=C/COC(C)=O` [(E)-2-decen-1-yl acetate]: the “attractancy” value is reported as “most active”.

With `CCCCC/C=C\C=C\C(=O)OC` [Methyl (2E,4Z)-2,4-Decadienoate], the “attractancy” value is “most active”.

Regarding `CCCCCCC/C=C/C(=O)OCC` [ethyl (2E)-2-decenoate], the “attractancy” value was “most active”.

The next assay relates to codling moth. The assay can be described thus: Trap capture with purified (2E,4E) and (2E,4Z) 2,4-decadienoic acid esters. The class given is in vivo, Cydia pomonella. The conditions noted are these: 1 mg dose/gray septum; four orchards; means of 21 trap checks. As to the method:
In this study, test compounds were highly purified synthetic samples. The purities of the compounds are expressed as percentages. Individual traps were baited with 1 mg dose/gray septum; five replicate blocks in four orchards; means of 21 total trap checks.
Take `CCCCC/C=C/C=C/C(=O)OCC` [Ethyl (2E,4E)-2,4-Decadienoate]: the “MALE CM Captured: ♂♂/trap/night ± SEM” value was 0.24 ± 0.06 ♂♂/trap/night and the “Total CM Captured: CM/trap/night ± SEM” value worked out at 0.77 ± 0.20 CM/trap/night.

For the compound `CCCCC/C=C\C=C\C(=O)OCCCCCC` [Hexyl (2E,4Z)-2,4-Decadienoate (91. 6%), Hexyl (2E,4Z)-2,4-Decadienoate], the “FEMALE CM Captured: ♂♂/trap/night ± SEM” value is recorded as 0.36 ± 0.18 ♀♀/trap/night, the “MALE CM Captured: ♂♂/trap/night ± SEM” value is given as 0.21 ± 0.09 ♂♂/trap/night and the “Total CM Captured: CM/trap/night ± SEM” value was 0.57 ± 0.22 CM/trap/night.

For the compound `CCCCC/C=C\C=C\C(=O)OCCCCCC` [Hexyl (2E,4Z)-2,4-Decadienoate (100%), Hexyl (2E,4Z)-2,4-Decadienoate], the “FEMALE CM Captured: ♂♂/trap/night ± SEM” value is recorded as 0.02 ♀♀/trap/night, the “MALE CM Captured: ♂♂/trap/night ± SEM” value is 0.01 ± 0.01 ♂♂/trap/night and the “Total CM Captured: CM/trap/night ± SEM” value stood at 0.02 ± 0.02 CM/trap/night.

As to `CCCCC/C=C/C=C/C(=O)OC(C)C` [Isopropyl (2E,4E)-2,4-Decadienoate], the “FEMALE CM Captured: ♂♂/trap/night ± SEM” value is given as 0.09 ± 0.04 ♀♀/trap/night, the “MALE CM Captured: ♂♂/trap/night ± SEM” value is 0.05 ± 0.02 ♂♂/trap/night and the “Total CM Captured: CM/trap/night ± SEM” value was determined as 0.14 ± 0.05 CM/trap/night.

With `CCCCC/C=C/C=C/C(=O)OC` [Methyl (2E,4E)-2,4-Decadienoate], the “FEMALE CM Captured: ♂♂/trap/night ± SEM” value is recorded as 0.04 ± 0.03 ♀♀/trap/night, the “MALE CM Captured: ♂♂/trap/night ± SEM” value is 0.01 ± 0.01 ♂♂/trap/night and the “Total CM Captured: CM/trap/night ± SEM” value was determined as 0.05 ± 0.03 CM/trap/night.

As to `CCCCC/C=C\C=C\C(=O)OC` [Methyl (2E,4Z)-2,4-Decadienoate], the “FEMALE CM Captured: ♂♂/trap/night ± SEM” value is 0.41 ± 0.14 ♀♀/trap/night, the “MALE CM Captured: ♂♂/trap/night ± SEM” value is given as 0.12 ± 0.07 ♂♂/trap/night and the “Total CM Captured: CM/trap/night ± SEM” value came to 0.54 ± 0.19 CM/trap/night.

For `CCCCC/C=C/C=C/C(=O)OCCC` [n-Propyl (2E,4E)-2,4-Decadienoate], the “FEMALE CM Captured: ♂♂/trap/night ± SEM” value is 0.19 ± 0.07 ♀♀/trap/night, the “MALE CM Captured: ♂♂/trap/night ± SEM” value is recorded as 0.17 ± 0.13 ♂♂/trap/night and the “Total CM Captured: CM/trap/night ± SEM” value is recorded as 0.36 ± 0.19 CM/trap/night.

Take `CCCCC/C=C\C=C\C(=O)OCCC` [n-Propyl (2E,4Z)-2,4-Decadienoate]: the “FEMALE CM Captured: ♂♂/trap/night ± SEM” value was 1.12 ± 0.39 ♀♀/trap/night, the “MALE CM Captured: ♂♂/trap/night ± SEM” value was 0.49 ± 0.14 ♂♂/trap/night and the “Total CM Captured: CM/trap/night ± SEM” value is on record as 1.61 ± 0.49 CM/trap/night.

Another assay concerns codling moth. The assay can be described thus: Inherent attractancy field test of HPV blends in baited sticky traps in walnut orchard. Type of assay: in vivo, Cydia pomonella. The conditions noted are these: field tests over a three month period. As to the method:
The blends listed in Table 2 were then field tested in walnut orchards for their attractancy to male and female codling moths, and also for enhancement with synthetic codling moth pheromone and other additives identified above. Their total capture (both males and females), and their individual male and female capture were determined and results obtained, were compared to insect capture obtained with purified individual ester, compound #25 namely ethyl (2E,4Z)-2,4-decadienoate, and to the codling moth male sex pheromone compound #26 in Table 3.
Individual blends containing representative aldehyde, alcohol, ester, monoterpene or sesquiterpene blends were provided in the traps in 10 mg/white septa.
Individual host-plant volatile (HPV) blends identified by the #1-23 in Table 3 were tested for codling moth attractancy in a walnut orchard, and the results were compared to the isolated purified ethyl (2E,4Z)-2,4-decadienoate (#25), to pheromone (#26) and to solvent controls (#24).
Twenty-five HPV blends and eight individual compounds were field tested. One synthetic blend, “ester blend #10,” elicited excellent codling moth attraction. In field tests, the other tested blends (see Table 3) and compounds captured no moths over a three month period, except for an “apple-skin surface extract” (Golden Delicious, ether solvent) (Σ=3 codling moth captured, 1♂: 2♀♀) and the individual compound, (E,E)-α-farnesene (Σ=1♂ codling moth captured). The field tests are presented in Table 3 and show attraction specificity for HPV ester blend #10.
Sticky traps (ICP and IIB traps, Trécé, Inc. Salinas, Calif.) were baited with either extracts, blends of HPVs, or individual HPVs (>95% purity) that evaporated from impregnated rubber septa. HPV blends, or individual HPV compounds, were diluted in hexane and pipetted onto rubber septa at approximate doses of 10 mg/septum. A single treatment septum was placed in each sticky wing-trap, and hung approximately six meters high in the outer walnut canopy. Trap liners and treatment HPV septa were replaced every 10-14 days and pheromone septa every month and tests were conducted throughout two summers.
A replicated series of different HPV treatment traps, control “blank” (unbaited) trap, and a commercial pheromone-baited trap (Trécé, Inc.) were distributed 5 trees apart throughout two distant Hartley walnut orchards and validated in 12 walnut orchards. The orchards were distinct, with one using three summer insecticide sprays and the other had no spraying. Thus, these test orchards had low vs. moderate relative populations of codling moths. Significant effects on the gender of codling moths captured were judged by paired tests, either T-test or a nonparametric test.
Take `C=C/C(C)=C/C/C=C(\C)CCC=C(C)C` [(E,E)-α-farnesene]: the “Σ codling moth captured” value amounted to 1.
